Experimental data reported in publication PMC12298827, “Subchronic Toxicities of Four Per- and Polyfluoroalkyl Substances (PFASs) by Oral Exposure in Sprague–Dawley Rats” (Toxics, 2025).

Tested on: male and female Sprague–Dawley rats
Assay: 90-day subchronic oral gavage toxicity study
Format: in vivo, rat
Conditions: male
Experimental: Subchronic (90-day) studies were performed in accordance with current U.S. EPA’s Toxic Substances Control Act Good Laboratory Practice (GLP) Standards, with the following two general exceptions to the GLP guidelines: Analysis of the dose formulations was conducted according to RTI-approved Standard Operating Procedures, and corn oil (the vehicle) was not characterized (certificate of analysis from the vendor is available in the appendices to the final reports). Male and female Sprague–Dawley rats (five dose levels plus a control, n = 10/sex/dose group, corn oil vehicle dose volume of 3 mL/kg; oral gavage) were used in these studies, and the rats were euthanized on SD 91. The dose levels for PFHI were 0, 12.5, 25, 50, 100, and 200 mg/kg-day. The dose levels for MHFPK were 0, 18.8, 37.5, 75, 150, and 300 mg/kg-day. The dose levels for PFNAC were 0, 0.1, 0.3, 1.0, 3.0, and 10 mg/kg-day for male rats and 0, 0.3, 1.0, 3.0, 10, and 30 mg/kg-day for female rats. For CTFPA, the dose levels were 0, 1.9, 3.8. 7.5, 15, and 30 mg/kg-day for male rats and 0, 6.3, 12.5, 25, 50, and 100 mg/kg-day for female rats. For each PFAS, three batches of dosing solution were prepared. The time between the batch preparation of the dosing solutions ranged between 29 and 39 days. Blood samples were collected from all the rats at termination for serum chemistry, hematology, coagulation, and the analysis of the parent PFAS chemical in the plasma. In vivo data collection and further detail on the endpoints examined postmortem are described below.
The rats were observed twice daily for morbidity and mortality throughout the study period. At least once prior to randomization to test groups and weekly thereafter, the rats were physically examined, and bodyweights were obtained. Feed consumption was quantified weekly starting on SD 1.
Neurotoxicity was evaluated using the functional observational battery (FOB) and measuring locomotor activity (LMA) 2–4 h post dosing on SDs 78–80 and 80–84, respectively. For both the 14- and 90-day studies, an ophthalmologic examination was conducted prior to randomization and near the end of the study, using indirect ophthalmoscopy and slit–lamp biomicroscopy (as needed) after the administration of a mydriatic solution.
Hematology, biochemistry, and coagulation endpoints were measured at the termination of the study. A Siemens Advia 2120i hematology analyzer (Siemens Healthineers, Erlangen, Germany) was used to measure (or calculate) the parameters related to the complete blood count, leukocyte differential count, and reticulocyte count. The hematology parameters are listed and described in Table 2. The prothrombin time […] and activated partial thromboplastin time (APTT) were measured using an Instrumentation Laboratory (Bedford, MA, USA) ACL Elite Pro coagulation analyzer (laser–nephelometric centrifugal method).
At necropsy, the rats were visually examined for external abnormalities and organ weights (absolute and relative to the BW and brain weight), which were recorded (paired organs weighed together). The tissues were preserved in 10% neutral buffered formalin (NBF), except for the ocular tissues, testes, and epididymides, which were preserved in modified Davidson’s fixative and later transferred to 10% NBF. Bone marrow smears were prepared from the femurs, and the slides were air-dried, fixed in methanol, stained, and stored at room temperature for possible future evaluation. The preserved tissues were embedded in paraffin, sectioned, stained with hematoxylin and eosin, and examined by a board-certified veterinary pathologist.
Statistical analysis was performed using Provantis™ Version 10 or greater (Instem LSS, Limited; Stone, Staffordshire, UK). Differences among the treatment groups compared to the control were evaluated using one-way analysis of variance (ANOVA) if the underlying assumptions of a normal distribution (Shapiro–Wilk test) and the homogeneity of the variance (Levene’s test) were satisfied. […]

In the case of `CC(=O)C(F)(F)C(F)(F)C(F)(F)F` [MHFPK, Methyl heptafluoropropyl ketone], the ALB (75 mg/kg-day) is reported as 3.18 ± 0.15 g/dL, the ALPi (75 mg/kg-day) is reported as 121.9±37.5 U/L and the APTT (75 mg/kg-day) is reported as 17.79 s. The BUN (75 mg/kg-day) was 15.8 ± 1.8 mg/dL, the CHOL (75 mg/kg-day) was 67.2 ± 7.1 mg/dL and the GLOB (75 mg/kg-day) was 3.70 ± 0.19 g/dL. It also gave a GLUC (75 mg/kg-day) of 214.9 ± 18.3 mg/dL, an HCT (75 mg/kg-day) of 50.90±1.81% and an HGB (75 mg/kg-day) of 15.70 ± 0.72 g/dL. For the same compound, the “Kidney Weight” value (75 mg/kg-day) was 3.25 g, the “Kidney/Body Weight” value (75 mg/kg-day) was 0.54% and the “Kidney/Brain Weight” value (75 mg/kg-day) was 146%. For the same compound, the “Liver Weight” value (75 mg/kg-day) was 15.73 g, the “Liver/Body Weight” value (75 mg/kg-day) was 2.62% and the “Liver/Brain Weight” value (75 mg/kg-day) was 706%. The MPV (75 mg/kg-day) was 7.92 ± 0.76 fL, the PT (75 mg/kg-day) was 16.37 s and the RBC (75 mg/kg-day) was 9.195±0.417 M/µL. For the same compound, the “Total BW change” value (75 mg/kg-day) was 308.68 g, the “Total Food Consumed” value (75 mg/kg-day) was 2218 g and the “% BW Gain” value (150 mg/kg-day) was 104.78%. The “% Diff, % BW Gain” value (150 mg/kg-day) was 7.09%, the “% Diff, Total BW change” value (150 mg/kg-day) was 6.62% and the “% Diff, Total Food Consumed” value (150 mg/kg-day) was 3.52%. The A/G (150 mg/kg-day) was 0.85±0.05 ratio, the ABNEUT (150 mg/kg-day) was 1.761±0.490 K/µL and the ABRETi (150 mg/kg-day) was 181.45±26.70 10^9/L. It also gave an ABSEOS (150 mg/kg-day) of 0.155±0.028 K/µL, an ALB (150 mg/kg-day) of 3.16 ± 0.18 g/dL and an ALPi (150 mg/kg-day) of 123.9±21.1 U/L. The APTT (150 mg/kg-day) was 18.41 s, the BUN (150 mg/kg-day) was 14.6 ± 1.7 mg/dL and the CHOL (150 mg/kg-day) was 71.1 ± 12.3 mg/dL. The “Decrease in the adrenal/BW ratio” value (150 mg/kg-day) was 20%, the GLOB (150 mg/kg-day) was 3.72 ± 0.20 g/dL and the GLUC (150 mg/kg-day) was 206.8 ± 44.7 mg/dL. For the same compound, the HCT (150 mg/kg-day) was 50.21±1.86%, the HGB (150 mg/kg-day) was 15.30 ± 0.78 g/dL and the “Kidney Weight” value (150 mg/kg-day) was 3.28 g. The “Kidney/Body Weight” value (150 mg/kg-day) was 0.54%, the “Kidney/Brain Weight” value (150 mg/kg-day) was 150% and the “Liver Weight” value (150 mg/kg-day) was 15.50 g. The “Liver/Body Weight” value (150 mg/kg-day) was 2.54%, the “Liver/Brain Weight” value (150 mg/kg-day) was 709% and the MPV (150 mg/kg-day) was 8.53 ± 0.84 fL. The PT (150 mg/kg-day) was 16.77 s, the RBC (150 mg/kg-day) was 9.254±0.319 M/µL and the “Total BW change” value (150 mg/kg-day) was 313.14 g. For the same compound, the “Total Food Consumed” value (150 mg/kg-day) was 2253 g, the “% BW Gain” value (300 mg/kg-day) was 102.36% and the “% Diff, % BW Gain” value (300 mg/kg-day) was 4.62%. The “% Diff, Total BW change” value (300 mg/kg-day) was 2.35%, the “% Diff, Total Food Consumed” value (300 mg/kg-day) was 0.89% and the A/G (300 mg/kg-day) was 0.88±0.07 ratio. The ABNEUT (300 mg/kg-day) was 1.674±0.435 K/µL, the ABRETi (300 mg/kg-day) was 174.98±22.88 10^9/L and the ABSEOS (300 mg/kg-day) was 0.139±0.055 K/µL. For the same compound, the ALB (300 mg/kg-day) was 3.24 ± 0.18 g/dL, the ALPi (300 mg/kg-day) was 123.2±28.8 U/L and the APTT (300 mg/kg-day) was 17.66 s. The Adrenal/BW ratio (300 mg/kg-day) was “no effect”, the BUN (300 mg/kg-day) was 14.8 ± 3.7 mg/dL and the CHOL (300 mg/kg-day) was 76.0 ± 22.0 mg/dL. The GLOB (300 mg/kg-day) was 3.70 ± 0.19 g/dL, the GLUC (300 mg/kg-day) was 206.4 ± 24.4 mg/dL and the HCT (300 mg/kg-day) was 49.25±1.52%. For the same compound, the HGB (300 mg/kg-day) was 15.18 ± 0.47 g/dL, the “Kidney Weight” value (300 mg/kg-day) was 3.24 g and the “Kidney/Body Weight” value (300 mg/kg-day) was 0.55%. The “Kidney/Brain Weight” value (300 mg/kg-day) was 144%, the “Liver Weight” value (300 mg/kg-day) was 15.58 g and the “Liver/Body Weight” value (300 mg/kg-day) was 2.61%. The “Liver/Brain Weight” value (300 mg/kg-day) was 693%, the MPV (300 mg/kg-day) was 8.58 ± 0.84 fL and the PT (300 mg/kg-day) was 17.12 s. The RBC (300 mg/kg-day) was 8.946±0.337 M/µL, the “Total BW change” value (300 mg/kg-day) was 300.61 g and the “Total Food Consumed” value (300 mg/kg-day) was 2196 g.
